Columns and labels:
[1] = tested on: platelet aggregation (platelet rich plasma); assay: Platelet aggregation inhibitory activity, ADP-induced (Pharmacological test 1); format: cell-based, human beings; settings: Homo sapiens, ADP (14 to 16 μM), read-out: Platelet aggregation inhibitory rate (%); for inhibition at 100 µM: Conc. 10^-4 mol; for inhibition at 10 µM: Conc. 10^-5 mol; for inhibition at 1 µM: Conc. 10^-6 mol
Procedure: (§1) The platelet aggregation inhibitory activity of test compounds was measured in accordance with the method of Born et al. [J. Physiol., London, 162, 67, (1962)] using a platelet aggregator [Platelet Aggregation Tracer manufactured by Niko Biosceince K.K.].
(§2) To 9 volumes of blood taken from human beings was added 1 volume of 3.8% citric acid and this sample was centrifuged at 1100 rpm for 10 minutes to give a platelet rich plasma (PRP). The remaining sample was further centrifuged at 3000 rpm for 15 minutes to give a platelet poor plasma (PPP).
(§3) The platelets in the PRP obtained above was counted using Coulter Counter, Coulter electronics inc. and diluted to 300000 platelets/μl with the PPP to prepare a PRP solution.
(§4) A cell for measurement of aggregation was charged with a solution containing a fixed concentration of test compounds (1 to 2 μl) and the PRP solution prepared above (200 μl) and warmed at 37° C. for 1 minute. Then, to the cell was added a suspension of adenosine diphosphate (ADP, manufactured by Sigma) or collagen (Collagen Reagent Horm, manufactured by Hormon-Chemie) to induce platelet aggregation and the transparency of the cell was measured and a platelet aggregation curve was prepared. The final concentration of the above ADP and the collagen was adjusted to 14 to 16 μM and 1 to 4 μg/ml, respectively.
(§5) Maximum Aggregation Rate (MAR) of platelets was calculated from the platelet aggregation curve by the following formula: […]
(§6) wherein (a) represents the transparency of PRP measured in the similar test, (b) represents the transparency of the PRP solution containing the test compound and the aggregation inducer at the time of maximum change in the above test, and (c) represents the transparency of the PPP solution measured in the similar test.
(§7) MAR for control with no addition of the test compound was also calculated, and based on this value, the platelet aggregation inhibitory rate (%) of each test compound at various concentrations in the above test was calculated from the following formula:
(§8) Inhibitory rate=[1-(MAR of PRP with addition of test compound)/(MAR of PRP
(§9) with no addition of test compound)]×100

[2] = tested on: platelet aggregation (platelet rich plasma); assay: Platelet aggregation inhibitory activity, collagen-induced (Pharmacological test 1); format: cell-based, human beings; settings: Homo sapiens, Collagen (1 to 4 μg/ml), read-out: Platelet aggregation inhibitory rate (%); for inhibition at 100 µM: Conc. 10^-4 mol; for inhibition at 10 µM: Conc. 10^-5 mol; for inhibition at 1 µM: Conc. 10^-6 mol
Procedure: as §1, §2, §3, §4, §5, §6, §7, §8, §9

C-AMP phosphodiesterase = C-AMP phosphodiesterase inhibitory activity (Pharmacological test 2); format: biochemical, dog; settings: C-AMP 0.4 μmol
Cerebellum blood flow = assay: Topical blood flow in the cerebellum, colored microspheres, anesthetized dog (Pharmacological Test 3); format: in vivo, hybrid dog
Brain blood flow = assay: Topical blood flow in the brain, colored microspheres, anesthetized dog (Pharmacological Test 3); format: in vivo, hybrid dog
[3] = tested on: aggregates of platelet (platelet rich plasma); assay: Platelet aggregate dissociation, ADP-induced aggregates (Pharmacological Test 4); format: cell-based, human beings; settings: Homo sapiens, 5 min, after 5 minutes, read-out: Platelet aggregate dissociation rate (%)
Procedure: as §2, §3
(§10) In the same manner as in the above test 1, the obtained PRP solution (200 μl ) was put in cell for measurement of aggregation and the cell was warmed at 37° C. for 1 minute. Thereto was added ADP or collagen suspension (final concentration of 14 to 16 μM and 1 to 4 μg/ml, respectively) without addition of the test compound to form aggregates of platelet. MAR was determined after stable transparency was obtained. This MAR was referred to as "MAR-1". Then, the test compound was added and MAR was determined from the transparency after 5 minutes. This MAR was referred to as "MAR-2".
(§11) Platelet aggregate dissociation rate (%) was calculated in accordance with the following formula: […]
(§12) Platelet aggregate dissociation rate
(§13) (%)=[(MAR-1)-(MAR-2)]/(MAR-1)×100

[4] = tested on: aggregates of platelet (platelet rich plasma); assay: Platelet aggregate dissociation, collagen-induced aggregates (Pharmacological Test 4); format: cell-based, human beings; settings: Homo sapiens, 5 min, after 5 minutes, read-out: Platelet aggregate dissociation rate (%)
Procedure: as §2, §3, §10, §11, §12, §13

[5] = 3 μg/kg/min i.v. over 30 minutes
[6] = 10 μg/kg/min i.v. over 30 minutes

| Phosphodiesterase inhibitory rate (%) (C-AMP phosphodiesterase; Conc. 10^-4 mol) | Phosphodiesterase inhibitory rate (%) (C-AMP phosphodiesterase; Conc. 10^-5 mol) | Compound | inhibition at 100 µM [1] | inhibition at 10 µM [1] | inhibition at 1 µM [1] | inhibition at 100 µM [2] | inhibition at 10 µM [2] | inhibition at 1 µM [2] | Increasing rate of blood flow (%) (Cerebellum blood flow; [5]) | Increasing rate of blood flow (%) (Cerebellum blood flow; [6]) | Increasing rate of blood flow (%) (Brain blood flow; [5]) | Increasing rate of blood flow (%) (Brain blood flow; [6]) | inhibition at 10 µM ([3]; Conc. 10 μmol) | inhibition at 30 µM ([3]; Conc. 30 μmol) | inhibition at 100 µM ([3]; Conc. 100 μmol) | inhibition at 10 µM ([4]; Conc. 10 μmol) | inhibition at 30 µM ([4]; Conc. 30 μmol) | inhibition at 100 µM ([4]; Conc. 100 μmol) |
| --- | --- | --- | --- | --- | --- | --- | --- | --- | --- | --- | --- | --- | --- | --- | --- | --- | --- | --- |
| 32.46% | 86.11% | O=c1ccc2cc(OCC(O)CNCc3ccc(Cl)cc3)ccc2[nH]1 (stereo not shown) [compound 3] | 78.2% | 44.5% | 13.2% | 97.8% | 96.7% | 17% | – | – | – | – | – | – | – | – | – | – |
| 15.27% | 72.39% | COc1ccc(CNCC(O)COc2ccc3[nH]c(=O)ccc3c2)cc1OC (stereo not shown) [compound 7] | 96.4% | 39% | 9.5% | 96.9% | 91.6% | 4.1% | 15.2 ± 11.5% | 29.7 ± 11.5% | 25.9 ± 7.0% | 57.8 ± 10.9% | 41.5% | 43.3% | 71.7% | 13.3% | 26.7% | 28% |
| 50.63% | 89.07% | CCOc1ccc(CNCC(O)COc2ccc3[nH]c(=O)ccc3c2)cc1OCC (stereo not shown) [compound 9] | – | – | – | – | – | – | – | – | – | – | – | – | – | – | – | – |
| 23.90% | 74.63% | O=c1ccc2cc(OCC(O)CN(CCO)Cc3ccc(F)cc3)ccc2[nH]1 (stereo not shown) [compound 10] | – | – | – | – | – | – | – | – | – | – | – | – | – | – | – | – |

Second part, the molecule before the results:

| Compound | Phosphodiesterase inhibitory rate (%) (C-AMP phosphodiesterase; Conc. 10^-4 mol) | Phosphodiesterase inhibitory rate (%) (C-AMP phosphodiesterase; Conc. 10^-5 mol) | inhibition at 100 µM [1] | inhibition at 10 µM [1] | inhibition at 1 µM [1] | inhibition at 100 µM [2] | inhibition at 10 µM [2] | inhibition at 1 µM [2] | Increasing rate of blood flow (%) (Cerebellum blood flow; [5]) | Increasing rate of blood flow (%) (Cerebellum blood flow; [6]) | Increasing rate of blood flow (%) (Brain blood flow; [5]) | Increasing rate of blood flow (%) (Brain blood flow; [6]) | inhibition at 10 µM ([3]; Conc. 10 μmol) | inhibition at 30 µM ([3]; Conc. 30 μmol) | inhibition at 100 µM ([3]; Conc. 100 μmol) | inhibition at 10 µM ([4]; Conc. 10 μmol) | inhibition at 30 µM ([4]; Conc. 30 μmol) | inhibition at 100 µM ([4]; Conc. 100 μmol) |
| --- | --- | --- | --- | --- | --- | --- | --- | --- | --- | --- | --- | --- | --- | --- | --- | --- | --- | --- |
| CN(Cc1ccccc1)CC(O)COc1ccc2[nH]c(=O)ccc2c1 (stereo not shown) [compound 1] | – | – | 79% | 31.7% | 14.9% | 96.3% | 70.7% | 3.8% | – | – | – | – | – | – | – | – | – | – |
| COc1cccc(CNCC(O)COc2ccc3[nH]c(=O)ccc3c2)c1 (stereo not shown) [compound 2] | 2.32% | 48.63% | 89.1% | 43.9% | 14.9% | 97.2% | 95.7% | 23.1% | – | – | – | – | – | – | – | – | – | – |
| CN(Cc1ccccn1)CC(O)COc1ccc2[nH]c(=O)ccc2c1 (stereo not shown) [compound 4] | – | – | 77.5% | 30.5% | 13.5% | 97.2% | 64.3% | – | – | – | – | – | – | – | – | – | – | – |
| CN(CCN(C)c1ccccc1)CC(O)COc1ccc2[nH]c(=O)ccc2c1 (stereo not shown) [compound 5] | – | – | 84.8% | 38.4% | 21.6% | 96.5% | 72.9% | 44.4% | – | – | – | – | – | – | – | – | – | – |
| COc1ccc(CNCC(O)COc2ccc3[nH]c(=O)ccc3c2)cc1 (stereo not shown) [compound 6] | – | – | 77.5% | 43.8% | 7.4% | 97% | 96.7% | 17% | – | – | – | – | – | – | – | – | – | – |
| O=c1ccc2cc(OCC(O)CNCc3cccc(Cl)c3)ccc2[nH]1 (stereo not shown) [compound 8] | – | – | 62% | 27.4% | 5.1% | 93.1% | 27.7% | 12.3% | – | – | – | – | – | – | – | – | – | – |

From patent US5401754A, “Agent for treating thrombosis and phosphodiesterase inhibitor” (Otsuka Pharmaceutical Company, Limited, priority 1991, dated 1995)
